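48-hour exposure; five concentrations; linearly interpolated endpoints. GI50: concentration for 50% inhibition of growth.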 Activity calls are given as the source filed them. Rule as the data show it: active = GI50 up to about 1.1 µM and inactive = higher.
Columns and labels:
Test in all cases: growth of human tumour cells (NCI), 48 h
[1] = tested on: SK-MEL-5
[2] = tested on: NCI-H522
[3] = tested on: SN12C
[4] = tested on: SW-620
[5] = tested on: UACC-257
[6] = tested on: U-251
[7] = tested on: A498
[8] = tested on: HCC 2998
[9] = tested on: OVCAR-8
[10] = tested on: SF-268
[11] = tested on: HT-29
[12] = tested on: OVCAR-4
[13] = tested on: NCI-H23
[14] = tested on: KM12
[15] = tested on: SNB-19
[16] = tested on: 786-0
[17] = tested on: SF-539
[18] = tested on: DMS-273
[19] = tested on: CAKI-1
[20] = tested on: MOLT-4
[21] = tested on: COLO 205
[22] = tested on: OVCAR-3
[23] = tested on: A549
[24] = tested on: SNB-78
[25] = tested on: M14
[26] = tested on: UO-31
[27] = tested on: SNB-75
[28] = tested on: UACC-62
[29] = tested on: OVCAR-5
[30] = tested on: RXF 393
[31] = tested on: NCI-H460
[32] = tested on: HOP-62
[33] = tested on: HL-60
[34] = tested on: DMS-114
[35] = tested on: DLD-1
[36] = tested on: SR
[37] = tested on: NCI-H226
[38] = tested on: SF-295
[39] = tested on: HOP-18
[40] = tested on: ACHN
[41] = tested on: RPMI-8226
[42] = tested on: EKVX
[43] = tested on: SK-MEL-2
[44] = tested on: KM-20L2
[45] = tested on: SK-OV-3
[46] = tested on: M19-MEL
[47] = tested on: TK-10
[48] = tested on: IGROV-1
[49] = tested on: Malme-3M
[50] = tested on: K562
[51] = tested on: HCT-116
[52] = tested on: LXFL 529
[53] = tested on: XF498
[54] = tested on: HCT-15
[55] = tested on: HOP-92

Measured: GI50

Cc1ccccc1C(=O)c1c(O)c2c(c(O)c1Br)CCCC2
inactive: [1] 18.5 µM | [2] 10.5 µM | [3] 18.1 µM | [4] 18.7 µM | [5] 14.7 µM | [6] 16.7 µM | [7] 22.1 µM | [8] 19.5 µM | [9] 17.3 µM | [10] 15 µM | [11] 27.9 µM | [12] 14.9 µM | [13] 26.2 µM | [14] 16.6 µM | [15] 23 µM | [16] 14.5 µM | [17] 18.5 µM | [18] 17.6 µM | [19] 20.1 µM | [20] 6.14 µM | [21] 18.9 µM | [22] 13.8 µM | [23] 23.2 µM | [24] 21.5 µM | [25] 14 µM | [26] 17.5 µM | [27] 18.7 µM | [28] 15.1 µM | [29] 20 µM | [30] 18.7 µM | [31] 22 µM | [32] 37.2 µM | [33] 5.07 µM | [34] 13.6 µM | [35] 23 µM | [36] 16.2 µM | [37] 25.4 µM | [38] 21.2 µM | [39] 12.5 µM | [40] 17.9 µM | [41] 20.1 µM | [42] 17.6 µM | [43] 16.7 µM | [44] 19.4 µM | [45] 21.8 µM | [46] 15.6 µM | [47] 17.8 µM | [48] 20.7 µM | [49] 11.5 µM | [50] 21.1 µM | [51] 16.6 µM | [52] 13 µM | [53] 21.7 µM | [55] 23.2 µM
16.7 µM: [54]
